Assay results from patent US6566073B1, “Materials and methods involving conditional retention domains” (Ariad Gene Therapeutics, Inc., priority 1998, dated 2003).

Legend:
[1] = target: T1, F(36M)4-hIn-m3 fusion protein in HT1080 cells (Homo sapiens, UniProt P01308+P62942, F37M/H34D/K53R/L86R/R55K); assay: Regulated insulin secretion from transiently transfected HT1080 cells (C-peptide ELISA); type: cell-based; details: increasing concentrations of ligand, 3 hours, FIG. 8
T1 construct: fusion of F(36M) domains to insulin results in a suppression of its secretion; expressed in transfected cells; host or cells: HT1080 cells, transient transfection
T1 sequence (P62942+P01308 fused P62942:F37M/P01308:H34D/P01308:K53R/P01308:R55K/P01308:L86R): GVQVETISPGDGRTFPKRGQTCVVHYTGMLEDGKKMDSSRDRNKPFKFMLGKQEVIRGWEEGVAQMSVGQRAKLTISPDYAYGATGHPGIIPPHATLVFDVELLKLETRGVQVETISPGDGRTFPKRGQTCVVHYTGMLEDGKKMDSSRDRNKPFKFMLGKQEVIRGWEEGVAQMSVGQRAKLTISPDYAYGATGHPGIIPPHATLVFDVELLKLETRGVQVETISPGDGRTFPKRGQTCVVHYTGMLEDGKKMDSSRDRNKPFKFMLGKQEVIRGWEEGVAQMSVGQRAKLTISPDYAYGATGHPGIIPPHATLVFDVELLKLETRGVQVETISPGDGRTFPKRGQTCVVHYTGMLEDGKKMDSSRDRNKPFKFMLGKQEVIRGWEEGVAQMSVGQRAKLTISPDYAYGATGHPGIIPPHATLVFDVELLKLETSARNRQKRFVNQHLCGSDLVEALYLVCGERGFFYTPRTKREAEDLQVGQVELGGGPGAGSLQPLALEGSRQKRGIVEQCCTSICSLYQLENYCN
Method: A vector driving expression of this F(36M)-insulin fusion protein (F(36M)4-hIn-m3) was transiently transfected into HT1080 cells. For comparison, vectors driving the expression of insulin protein alone, with (hIn-m3) or without (hIn-wt) the three mutations were also transfected. Following overnight incubation of cells in the absence of ligand, the medium was washed away and fresh medium added, without or with increasing concentrations of the monomeric ligand, AP21998. Three hours later, the amount of insulin secreted into the medium was determined by ELISA using an assay that recognizes an epitope within the C-peptide (ALPCO).

[2] = target: T2, F(36M)-hGH fusion protein in HT88 cells (stably transfected HT1080) (Homo sapiens, UniProt P01241+P62942, F37M); assay: Ligand-dependent hGH secretion from HT88 cells (radioimmunoassay); type: cell-based; details: FIG. 5A
T2 construct: 4 copies of the F(36M) domain; expressed in transfected cells; host or cells: HT1080 human fibrosarcoma cells, stably transfected pool HT88
T2 sequence (P62942+P01241 fused P62942:F37M): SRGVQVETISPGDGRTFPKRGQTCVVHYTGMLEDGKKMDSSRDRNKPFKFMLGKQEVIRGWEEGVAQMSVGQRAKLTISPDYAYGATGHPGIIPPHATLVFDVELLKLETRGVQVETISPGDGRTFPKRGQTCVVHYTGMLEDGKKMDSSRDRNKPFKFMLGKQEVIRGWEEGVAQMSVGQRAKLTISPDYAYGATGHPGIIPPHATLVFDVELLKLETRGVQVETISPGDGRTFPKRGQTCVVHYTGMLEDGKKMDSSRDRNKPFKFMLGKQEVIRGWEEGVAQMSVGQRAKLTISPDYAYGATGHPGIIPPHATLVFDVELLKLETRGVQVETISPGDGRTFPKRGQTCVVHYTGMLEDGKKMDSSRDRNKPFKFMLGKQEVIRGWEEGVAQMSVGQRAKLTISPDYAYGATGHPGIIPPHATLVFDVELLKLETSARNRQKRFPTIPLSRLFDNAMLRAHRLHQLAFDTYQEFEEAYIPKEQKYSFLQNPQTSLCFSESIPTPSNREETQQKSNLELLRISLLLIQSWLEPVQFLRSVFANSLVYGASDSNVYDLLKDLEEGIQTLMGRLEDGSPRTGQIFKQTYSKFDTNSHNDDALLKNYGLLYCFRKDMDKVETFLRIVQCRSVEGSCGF
Method: A vector driving the expression of this fusion protein, under control of the strong constitutive enhancer from CMV, was transiently transfected into HT1080 cells, a human fibrosarcoma cell line. Following overnight incubation of cells in the absence of ligand, the medium was washed away and fresh medium added, with or without ligand. Two hours later, the amount of hGH secreted into the medium was determined by radioimmunoassay. […] In contrast, in the presence of ligand, the amount of hGH secreted was several hundred-fold greater.
Pools of clones stably transfected with the F(36M)-hGH fusion protein (HT88 pool) were analyzed as described for the transiently transfected cells. […] To determine the constitutive rate of hGH secretion, the amount of hGH secreted in the presence of ligand was measured from cells that had already been exposed to ligand for 15 hours. As shown in lane 3, the constitutive rate of secretion from the HT88 cell line was very similar to the rate of secretion from the HT89 cell line which had been stably transfected with the wild type hGH protein (lane 4). Thus, in the presence of ligand the F(36M) domains have no detectable “retention” activity. […] This steady state level of stored F(36M)-hGH fusion protein can persist for months in the cell line with no apparent toxic effect. […]

wild-type FKBP = wild-type FKBP (Homo sapiens, UniProt P62942); assay: Binding of bumped FKBP ligands to wild-type FKBP
wild-type FKBP, sequence (P62942 whole entry, the tested form may be a part): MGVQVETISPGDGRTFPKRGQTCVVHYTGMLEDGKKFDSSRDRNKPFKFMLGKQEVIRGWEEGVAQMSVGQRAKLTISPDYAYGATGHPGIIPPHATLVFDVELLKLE
From the text: (§1) AP21998 and AP22542 are ligands of FKBP that have particular utility for CAD applications, because they bind with high affinity to F36M-FKBP but poorly to the wild-type protein, and are thus anticipated to lead to minimal interactions with the endogenous proteins during in vivo applications. The design and assay of such “bumped” ligands that target a hole created by truncating FKBP residue Phe36 have been described (Clackson et al., Proc. Natl. Acad. Sci. USA 95:10437-10442, 1998).

F36M-FKBP = F36M-FKBP (Homo sapiens, UniProt P62942, F37M); assay: Binding of bumped FKBP ligands to F36M-FKBP
F36M-FKBP, sequence (P62942 whole entry F37M): as the sequence (P62942 whole entry, the tested form may be a part) above, with F37M counted along it
From the text: as §1

[3] = target: T3, F(36M)4-hIn-m3 fusion protein in implanted HT101-10p cells (Homo sapiens, UniProt P01308+P62942, F37M/H34D/K53R/L86R/R55K); assay: Regulated insulin secretion in vivo: serum insulin and glucose in STZ-treated mice implanted with HT101-10p cells; set-up: species or system male nu/nu mice
T3 construct: fusion of F(36M) domains to insulin results in a suppression of its secretion; expressed in transfected cells; host or cells: HT101-10p cells (HT1080 stably transfected), implanted intramuscularly into male nu/nu mice
T3 sequence (P62942+P01308 fused P62942:F37M/P01308:H34D/P01308:K53R/P01308:R55K/P01308:L86R): as the sequence (P62942+P01308 fused P62942:F37M/P01308:H34D/P01308:K53R/P01308:R55K/P01308:L86R) above
Method: To test whether this system could be used to regulate secretion of insulin in vivo and effect changes in serum glucose levels, 2×10e7 HT101-10p cells were implanted intramuscularly into male nu/nu mice. HT101-10p cells were generated by stably transfecting HT1080 cells with a vector that drives expression of the F(36M)4-hIn-m3 fusion protein. Mice were made hyperglycemic by treatment 2 days earlier with 300 mg/kg streptozotocin (STZ). […] Approximately 1 hr after cells are implanted, animal received vehicle or the indicated dose of intravenous AP22542 (an analog of AP21998). Two hours later, serum samples were collected and assayed for insulin (Ultrasensitive human insulin-specific RIA, Linco) and glucose (Sigma) concentrations. […] In contrast, in animals treated with 10 mg/kg AP22542, serum insulin levels increase to ˜200 pM and serum glucose levels decline to ˜75 mg/dl.
To examine the kinetics of this ligand-induced reduction in serum glucose, STZ-treated mice implanted with 2×10e7 HT101-10p cells were administered a single dose of 30 mg/kg AP22542 intravenously. Serum glucose levels were measured at various times between 5 minutes and 10 hours later. […] This effect is transient as serum glucose levels rise to 350 mg/dl within 5 hours and return to baseline between 6 and 10 hours later. Since insulin secretion is dependent on the presence of the drug, administration of lower doses of AP22542 or of a ligand with a shorter half life should result in an even more transient production of secreted protein and resulting physiological effect. Conversely, administration of higher doses of AP22542 or of a ligand with a longer half life should result in a more prolonged production of secreted protein.

[4] = 1 mg/kg intravenous, 2 hours after dose, hyperglycemic mice

Structure (SMILES) | insulin secretion into medium [1] | concentration giving peak level of hGH secretion [2] [µM] | EC50 ([2]; read-out: half-maximal secretion of hGH) [nM] | binding to the wild-type protein (wild-type FKBP) | binding to F36M-FKBP (F36M-FKBP) | serum glucose [3, 4] | serum insulin levels [3, 4] | serum insulin levels ([3]; 10 mg/kg intravenous, 2 hours after dose) [pM] | serum glucose levels ([3]; 10 mg/kg intravenous, 2 hours after dose, STZ baseline ~350 mg/dl) [mg/dL] | serum glucose levels ([3]; 30 mg/kg intravenous single dose, 5 and 15 minutes after administration) | serum glucose levels ([3]; 30 mg/kg intravenous single dose, by two hours, initial levels nearly 500 mg/dl) [mg/dL] | serum glucose ([3]; 30 mg/kg intravenous single dose, within 30 minutes) | serum glucose levels ([3]; 30 mg/kg intravenous single dose, within 5 hours) [mg/dL]
CC[C@H](C(=O)N1CCCCC1C(=O)O[C@H](CCc1ccc(OC)c(OC)c1)c1cccc(OCC(=O)NCCCN(C)C)c1)c1cc(OC)c(OC)c(OC)c1 (stereo partly drawn) [AP21998] | secretion is induced in the presence of monomer in a dose-dependent manner | 2 to 3 | 600 | poorly | high affinity |  |  |  |  |  |  |  | 
CC[C@H](C(=O)N1CCCC[C@H]1C(=O)O[C@H](CCc1ccc(OC)c(OC)c1)c1cccnc1)c1cc(OC)c(OC)c(OC)c1 [AP22542, 1-[2(S)-(3,4,5-trimethoxyphenyl)-butyryl]-piperdine-2(S)-carboxylic acid, 3-(3,4-Dimethoxyphenyl)-1-pyridin-3-yl-propan-1(R)-ol ester] |  |  |  | poorly | high affinity | no change in serum glucose | fails to increase serum insulin levels above the lower limit of detection | ~200 | ~75 | indistinguishable from animals treated with vehicle | 50 | significant reduction in serum glucose | 350
